Data reported in patent US9611269B2, “Azetidinyl phenyl, pyridyl or pyrazinyl carboxamide derivatives as JAK inhibitors” (Incyte Corporation, priority 2011, dated 2017).

What was measured:
Type in all cases: biochemical
[1] = molecular target: human JAK2 (a.a. 828-1132) catalytic domain (Homo sapiens (Human), UniProt O60674); test: In vitro JAK kinase assay (HTRF, 1 mM ATP), JAK2; conditions: at 1 mM ATP
Method: (§1) The catalytic activity of JAK1, JAK2 or JAK3 was assayed by measuring the phosphorylation of a biotinylated peptide. The phosphorylated peptide was detected by homogenous time resolved fluorescence (HTRF). […] Reactions were carried out at room temperature for 1 hour and then stopped with 20 μL 45 mM EDTA, 300 nM SA-APC, 6 nM Eu-Py20 in assay buffer (Perkin Elmer, Boston, Mass.). Binding to the Europium labeled antibody took place for 40 minutes and HTRF signal was measured on a Fusion plate reader (Perkin Elmer, Boston, Mass.).

[2] = system: human JAK1 (a.a. 837-1142) catalytic domain; test: In vitro JAK kinase assay (HTRF, 1 mM ATP), JAK1; conditions: ratio of JAK2 IC50 to JAK1 IC50 at 1 mM ATP;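 further: kinase activity followed as phosphorylation of a biotin-tagged peptide, detected by HTRF with Eu-labelled anti-phosphotyrosine antibody and SA-APC, after 1 h reaction at room temperature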
Method: as §1

[3] = molecular target: human JAK1 (a.a. 837-1142) catalytic domain (Homo sapiens, UniProt P23458); test: In vitro JAK kinase assay (HTRF, 1 mM ATP), JAK1; conditions: at 1 mM ATP;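 further: kinase activity followed as phosphorylation of a biotin-tagged peptide, detected by HTRF with Eu-labelled anti-phosphotyrosine antibody and SA-APC, after 1 h reaction at room temperature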
human JAK1 (a.a. 837-1142) catalytic domain (Homo sapiens, UniProt P23458), sequence (P23458 whole entry, looked up, the tested form may be a part): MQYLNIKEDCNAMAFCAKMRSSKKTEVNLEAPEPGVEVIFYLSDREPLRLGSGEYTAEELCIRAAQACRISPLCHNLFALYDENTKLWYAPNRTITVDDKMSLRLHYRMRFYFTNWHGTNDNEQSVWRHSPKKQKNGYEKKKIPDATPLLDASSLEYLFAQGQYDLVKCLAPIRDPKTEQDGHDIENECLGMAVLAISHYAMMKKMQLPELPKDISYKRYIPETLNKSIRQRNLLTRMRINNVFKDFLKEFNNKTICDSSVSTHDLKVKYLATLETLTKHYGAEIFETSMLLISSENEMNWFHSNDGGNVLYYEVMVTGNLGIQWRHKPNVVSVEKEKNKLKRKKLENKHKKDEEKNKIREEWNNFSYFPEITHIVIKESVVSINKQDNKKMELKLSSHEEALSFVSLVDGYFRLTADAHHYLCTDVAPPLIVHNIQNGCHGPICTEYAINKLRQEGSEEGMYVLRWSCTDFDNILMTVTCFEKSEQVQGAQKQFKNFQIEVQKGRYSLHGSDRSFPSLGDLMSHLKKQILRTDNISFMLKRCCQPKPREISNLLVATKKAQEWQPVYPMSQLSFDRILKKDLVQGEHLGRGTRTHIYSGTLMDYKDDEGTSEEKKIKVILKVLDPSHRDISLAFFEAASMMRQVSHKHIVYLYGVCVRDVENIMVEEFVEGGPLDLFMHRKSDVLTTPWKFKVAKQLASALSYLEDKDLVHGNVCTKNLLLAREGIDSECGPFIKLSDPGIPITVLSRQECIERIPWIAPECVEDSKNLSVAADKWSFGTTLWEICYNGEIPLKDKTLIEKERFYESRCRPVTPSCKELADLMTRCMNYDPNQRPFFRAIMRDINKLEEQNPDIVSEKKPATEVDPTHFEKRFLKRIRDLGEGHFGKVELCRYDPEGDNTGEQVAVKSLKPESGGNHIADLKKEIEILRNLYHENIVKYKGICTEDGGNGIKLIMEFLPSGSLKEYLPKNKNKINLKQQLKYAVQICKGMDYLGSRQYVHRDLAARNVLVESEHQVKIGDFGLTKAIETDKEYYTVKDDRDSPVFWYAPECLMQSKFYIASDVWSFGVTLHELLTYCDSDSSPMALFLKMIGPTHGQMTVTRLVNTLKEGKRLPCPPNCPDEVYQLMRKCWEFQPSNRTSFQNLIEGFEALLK
Method: as §1

human JAK2 (a.a. 828-1132) catalytic domain, sequence (O60674 828-1132): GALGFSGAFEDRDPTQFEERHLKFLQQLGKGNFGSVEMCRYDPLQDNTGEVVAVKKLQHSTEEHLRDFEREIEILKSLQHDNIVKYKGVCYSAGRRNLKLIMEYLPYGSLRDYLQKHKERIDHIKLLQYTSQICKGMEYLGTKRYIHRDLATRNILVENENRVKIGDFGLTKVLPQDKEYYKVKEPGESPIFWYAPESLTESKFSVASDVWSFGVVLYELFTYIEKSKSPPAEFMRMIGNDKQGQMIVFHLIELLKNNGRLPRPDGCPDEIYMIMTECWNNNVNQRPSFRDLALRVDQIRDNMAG

SMILES	IC50 [1] [nM]	JAK2/JAK1 [2]	IC50 [3] [nM]
CC(C)NC(=O)c1ccc(N2CC(CC#N)(n3cc(-c4ccnc5[nH]ccc45)cn3)C2)cc1 [Example 1, 4-{3-(Cyanomethyl)-3-[4-(1H-pyrrolo[2,3-b]pyridin-4-yl)-1H-pyrazol-1-yl]azetidin-1-yl}-N-isopropylbenzamide]	10 to 40	A (A means greater than or equal to 10)	< 10
C[C@H](NC(=O)c1ccc(N2CC(CC#N)(n3cc(-c4ncnc5[nH]ccc45)cn3)C2)cn1)C1CC1 [Example 11, 5-{3-(Cyanomethyl)-3-[4-(7H-pyrrolo[2,3-d]pyrimidin-4-yl)-1H-pyrazol-1-yl]azetidin-1-yl}-N-[(1S)-1-cyclopropylethyl]pyridine-2-carboxamide]	≤ 10	A (A means greater than or equal to 10)	< 10
N#CCC1(n2cc(-c3ncnc4[nH]ccc34)cn2)CN(c2ccc(C(=O)NC3CC(F)(F)C3)nc2)C1 [Example 12, 5-{3-(Cyanomethyl)-3-[4-(7H-pyrrolo[2,3-d]pyrimidin-4-yl)-1H-pyrazol-1-yl]azetidin-1-yl}-N-(3,3-difluorocyclobutyl)pyridine-2-carboxamide]	≤ 10	A (A means greater than or equal to 10)	< 10
CC(C)NC(=O)c1ccc(N2CC(CC#N)(n3cc(-c4ncnc5[nH]ccc45)cn3)C2)cc1 [Example 13, 4-{3-(Cyanomethyl)-3-[4-(7H-pyrrolo[2,3-d]pyrimidin-4-yl)-1H-pyrazol-1-yl]azetidin-1-yl}-N-isopropylbenzamide]	10 to 40	A (A means greater than or equal to 10)	< 10
CC(C)NC(=O)c1ccc(N2CC(CC#N)(n3cc(-c4ncnc5[nH]ccc45)cn3)C2)cc1F [Example 14, 4-{3-(Cyanomethyl)-3-[4-(7H-pyrrolo[2,3-d]pyrimidin-4-yl)-1H-pyrazol-1-yl]azetidin-1-yl}-2-fluoro-N-isopropylbenzamide]			< 10
C[C@H](NC(=O)c1ccc(N2CC(CC#N)(n3cc(-c4ncnc5[nH]ccc45)cn3)C2)cc1F)C1CCCCC1 [Example 15, 4-{3-(Cyanomethyl)-3-[4-(7H-pyrrolo[2,3-d]pyrimidin-4-yl)-1H-pyrazol-1-yl]azetidin-1-yl}-N-[(1S)-1-cyclohexylethyl]-2-fluorobenzamide]	10 to 40	A (A means greater than or equal to 10)	< 10
C[C@@H](NC(=O)c1ccc(N2CC(CC#N)(n3cc(-c4ncnc5[nH]ccc45)cn3)C2)c(F)c1)C(F)(F)F [Example 16, 4-{3-(Cyanomethyl)-3-[4-(7H-pyrrolo[2,3-d]pyrimidin-4-yl)-1H-pyrazol-1-yl]azetidin-1-yl}-3-fluoro-N-[(1R)-2,2,2-trifluoro-1-methylethyl]benzamide]	≤ 10	A (A means greater than or equal to 10)	< 10
N#CCC1(n2cc(-c3ncnc4[nH]ccc34)cn2)CN(c2ccc(C(=O)NC3(C(F)(F)F)CC3)nc2)C1 [Example 17, 5-{3-(Cyanomethyl)-3-[4-(7H-pyrrolo[2,3-d]pyrimidin-4-yl)-1H-pyrazol-1-yl]azetidin-1-yl}-N-[1-(trifluoromethyl)cyclopropyl]pyridine-2-carboxamide]	≤ 10	A (A means greater than or equal to 10)	< 10
CC(C)NC(=O)c1cnc(N2CC(CC#N)(n3cc(-c4ncnc5[nH]ccc45)cn3)C2)cn1 [Example 18, 5-{3-(Cyanomethyl)-3-[4-(7H-pyrrolo[2,3-d]pyrimidin-4-yl)-1H-pyrazol-1-yl]azetidin-1-yl}-N-isopropylpyrazine-2-carboxamide]	10 to 40		
C[C@H](NC(=O)c1ccc(N2CC(CC#N)(n3cc(-c4ncnc5[nH]ccc45)cn3)C2)cc1)C(F)(F)F [Example 19, 4-{3-(Cyanomethyl)-3-[4-(7H-pyrrolo[2,3-d]pyrimidin-4-yl)-1H-pyrazol-1-yl]azetidin-1-yl}-N-[(1S)-2,2,2-trifluoro-1-methylethyl]benzamide bis(trifluoroacetate)]			< 10
CC(NC(=O)c1ccc(N2CC(CC#N)(n3cc(-c4ncnc5[nH]ccc45)cn3)C2)cc1)C1CCN(C)CC1 (stereo not drawn) [Example 20, 4-{3-(Cyanomethyl)-3-[4-(7H-pyrrolo[2,3-d]pyrimidin-4-yl)-1H-pyrazol-1-yl]azetidin-1-yl}-N-[1-(1-methylpiperidin-4-yl)ethyl]benzamide]	10 to 40	A (A means greater than or equal to 10)	< 10
C[C@@H](NC(=O)c1cc(F)c(N2CC(CC#N)(n3cc(-c4ncnc5[nH]ccc45)cn3)C2)cc1F)C1CC1 [Example 21, 4-{3-(Cyanomethyl)-3-[4-(7H-pyrrolo[2,3-d]pyrimidin-4-yl)-1H-pyrazol-1-yl]azetidin-1-yl}-N-[(1R)-1-cyclopropylethyl]-2,5-difluorobenzamide]	≤ 10	A (A means greater than or equal to 10)	< 10
C[C@@H](NC(=O)c1ccc(N2CC(CC#N)(n3cc(-c4ncnc5[nH]ccc45)cn3)C2)cc1)C(F)(F)F [Example 23, 4-{3-(Cyanomethyl)-3-[4-(7H-pyrrolo[2,3-d]pyrimidin-4-yl)-1H-pyrazol-1-yl]azetidin-1-yl}-N-[(1R)-2,2,2-trifluoro-1-methylethyl]benzamide bis(trifluoroacetate)]			< 10
CC(NC(=O)c1ccc(N2CC(CC#N)(n3cc(-c4ncnc5[nH]ccc45)cn3)C2)cc1)C(F)(F)F (stereo not drawn) [Example 26, 4-{3-(Cyanomethyl)-3-[4-(7H-pyrrolo[2,3-d]pyrimidin-4-yl)-1H-pyrazol-1-yl]azetidin-1-yl}-N-(2,2,2-trifluoro-1-methylethyl)benzamide]			< 10
CC(C)NC(=O)c1cnc(N2CC(CC#N)(n3cc(-c4ccnc5[nH]ccc45)cn3)C2)cn1 [Example 34, 5-{3-(Cyanomethyl)-3-[4-(1H-pyrrolo[2,3-b]pyridin-4-yl)-1H-pyrazol-1-yl]azetidin-1-yl}-N-isopropylpyrazine-2-carboxamide]	10 to 40		

Other lines, results leading:

IC50 [1] [nM]	JAK2/JAK1 [2]	IC50 [3] [nM]	SMILES
≤ 10	A (A means greater than or equal to 10)	< 10	C[C@H](NC(=O)c1ccc(N2CC(CC#N)(n3cc(-c4ccnc5[nH]ccc45)cn3)C2)cn1)C1CC1 [Example 2, 5-{3-(Cyanomethyl)-3-[4-(1H-pyrrolo[2,3-b]pyridin-4-yl)-1H-pyrazol-1-yl]azetidin-1-yl}-N-[(1S)-1-cyclopropylethyl]pyridine-2-carboxamide]
≤ 10	A (A means greater than or equal to 10)	< 10	CC(C)NC(=O)c1ccc(N2CC(CC#N)(n3cc(-c4ncnc5[nH]ccc45)cn3)C2)c(F)c1 [Example 3, 4-{3-(Cyanomethyl)-3-[4-(7H-pyrrolo[2,3-d]pyrimidin-4-yl)-1H-pyrazol-1-yl]azetidin-1-yl}-3-fluoro-N-isopropylbenzamide]
≤ 10	A (A means greater than or equal to 10)	< 10	C[C@@H](NC(=O)c1ccc(N2CC(CC#N)(n3cc(-c4ncnc5[nH]ccc45)cn3)C2)c(F)c1)C1CC1 [Example 4, 4-{3-(Cyanomethyl)-3-[4-(7H-pyrrolo[2,3-d]pyrimidin-4-yl)-1H-pyrazol-1-yl]azetidin-1-yl}-N-[(1R)-1-cyclopropylethyl]-3-fluorobenzamide]
≤ 10	A (A means greater than or equal to 10)	< 10	C[C@H](NC(=O)c1ccc(N2CC(CC#N)(n3cc(-c4ncnc5[nH]ccc45)cn3)C2)c(F)c1)C1CC1 [Example 5, 4-{3-(Cyanomethyl)-3-[4-(7H-pyrrolo[2,3-d]pyrimidin-4-yl)-1H-pyrazol-1-yl]azetidin-1-yl}-N-[(1S)-1-cyclopropylethyl]-3-fluorobenzamide]
≤ 10	A (A means greater than or equal to 10)	< 10	CC(C)NC(=O)c1cc(F)c(N2CC(CC#N)(n3cc(-c4ncnc5[nH]ccc45)cn3)C2)cc1F [Example 6, 4-{3-(Cyanomethyl)-3-[4-(7H-pyrrolo[2,3-d]pyrimidin-4-yl)-1H-pyrazol-1-yl]azetidin-1-yl}-2,5-difluoro-N-isopropylbenzamide]
≤ 10	A (A means greater than or equal to 10)	< 10	CN(C(=O)c1ccc(N2CC(CC#N)(n3cc(-c4ncnc5[nH]ccc45)cn3)C2)c(F)c1)C1CC1 [Example 7, 4-{3-(Cyanomethyl)-3-[4-(7H-pyrrolo[2,3-d]pyrimidin-4-yl)-1H-pyrazol-1-yl]azetidin-1-yl}-N-cyclopropyl-3-fluoro-N-methylbenzamide]
≤ 10	A (A means greater than or equal to 10)	< 10	CC(C)NC(=O)c1cc(Cl)c(N2CC(CC#N)(n3cc(-c4ncnc5[nH]ccc45)cn3)C2)cc1F [Example 8, 5-Chloro-4-{3-(cyanomethyl)-3-[4-(7H-pyrrolo[2,3-d]pyrimidin-4-yl)-1H-pyrazol-1-yl]azetidin-1-yl}-2-fluoro-N-isopropylbenzamide]
≤ 10	A (A means greater than or equal to 10)	< 10	CC(C)NC(=O)c1ccc(N2CC(CC#N)(n3cc(-c4ncnc5[nH]ccc45)cn3)C2)cn1 [Example 9, 5-{3-(Cyanomethyl)-3-[4-(7H-pyrrolo[2,3-d]pyrimidin-4-yl)-1H-pyrazol-1-yl]azetidin-1-yl}-N-isopropylpyridine-2-carboxamide]
≤ 10	A (A means greater than or equal to 10)	< 10	C[C@H](NC(=O)c1ccc(N2CC(CC#N)(n3cc(-c4ncnc5[nH]ccc45)cn3)C2)c(F)c1)C(F)(F)F [Example 10, 4-{3-(Cyanomethyl)-3-[4-(7H-pyrrolo[2,3-d]pyrimidin-4-yl)-1H-pyrazol-1-yl]azetidin-1-yl}-3-fluoro-N-[(1S)-2,2,2-trifluoro-1-methylethyl]benzamide]
